The source of these data is ChEMBL document CHEMBL1201862, “PubChem BioAssay data set” (2004).

Among the test systems are 786-0; SF-268; PC-3; RXF 393; NCI-H522; NCI/ADR-RES; UO-31; UACC-257; EKVX; RPMI-8226; NCI-H226; Malme-3M; DU-145; MDA-MB-435; LOX IMVI; SK-OV-3; SF-539; A549; HL-60; MDA-N.
Holding throughout (test): NCI tumour cell line growth inhibition, 48 h

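How tested: cells in 96-well plates exposed to compound for 48 hours at five concentrations. At the GI50, growth is halved.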 The source made the active and inactive calls. Rule as the data show it: active = GI50 up to about 1.1 µM and inactive = higher.

In the case of `COC1(OC)C=CC2C1C1C=CC2C1(OC)OC` (centres undefined), the GI50 in the test on 786-0, in the test with SF-268, with PC-3, with RXF 393, in the test on NCI-H522 and in the test with NCI/ADR-RES was > 100 µM (inactive) each time. The GI50 in the test on UO-31, in the test on UACC-257, in the test on EKVX, with RPMI-8226, with NCI-H226 and with Malme-3M was > 100 µM (inactive) each time. The GI50 in the test on DU-145, in the test with MDA-MB-435, in the test with LOX IMVI, with SK-OV-3, in the test on SF-539 and in the test with A549 was > 100 µM (inactive) in each case.
`CC1(C)CNC(=O)C2(CCCO2)CNC(C)(C)CNC(=O)C2(CCCO2)CN1` (centres undefined): the GI50 with 786-0, in the test on SF-268, in the test on PC-3, in the test with HL-60, in the test with NCI-H522 and in the test with NCI/ADR-RES was > 10 µM (inactive) throughout. In addition, the GI50 in the test with UACC-257, in the test on RPMI-8226, with Malme-3M, in the test with DU-145, with MDA-MB-435 and with LOX IMVI was > 10 µM (inactive) each time. Moreover, the GI50 with SK-OV-3, with SF-539 and in the test on A549 was > 10 µM (inactive) each time.
Consider `CCOC(=O)CC(NCc1ccc(/N=C/c2nc3ccc(C(F)(F)F)cc3nc2-c2ccccc2)cc1)C(=O)OCC` (centres undefined), for which the GI50 in the test on 786-0 is 15.3 µM (inactive); in the test with SF-268, > 100 µM (inactive); in the test on RXF 393, 15.2 µM (inactive); in the test on HL-60, > 100 µM (inactive); with NCI-H522, > 100 µM (inactive); in the test on UO-31, > 100 µM (inactive). The GI50 was > 100 µM (inactive) in the test with UACC-257; > 69.5 µM (inactive) in the test with EKVX; > 100 µM (inactive) with RPMI-8226; > 100 µM (inactive) in the test with NCI-H226; > 100 µM (inactive) in the test with Malme-3M; > 100 µM (inactive) with LOX IMVI. In addition, the GI50 is 29 µM (inactive) in the test on SK-OV-3, 17.9 µM (inactive) in the test on SF-539 and > 100 µM (inactive) with A549.
Turning to `C=CCNC1=C2C[C@@H](C)C[C@@H](OC)[C@H](OC(=O)CCN)[C@H](C)/C=C(\C)[C@@H](OC(N)=O)[C@H](OC)/C=C\C=C(/C)C(=O)NC(=CC1=O)C2=O`, the GI50 was 4.38 µM (inactive) in the test on 786-0; 9.57 µM (inactive) in the test on SF-268; 4.66 µM (inactive) in the test with RXF 393; 3.83 µM (inactive) with HL-60; 5.3 µM (inactive) in the test with NCI-H522; 76.2 µM (inactive) with NCI/ADR-RES. In addition, the GI50 is 11.2 µM (inactive) in the test on UO-31; 2.42 µM (inactive) in the test with UACC-257; 8.75 µM (inactive) in the test on EKVX; 6.08 µM (inactive) with RPMI-8226; 2.67 µM (inactive) with Malme-3M; 1.21 µM (inactive) in the test with DU-145. Besides, the GI50 in the test on MDA-MB-435 is 2.98 µM (inactive); in the test with LOX IMVI, 3.03 µM (inactive); with SK-OV-3 it was 1.35 µM (inactive); in the test on MDA-N, 1.21 µM (inactive); in the test on A549, 3.4 µM (inactive).
In the case of `CCOC(=O)C1OC(=O)CC1C1(C(=O)OCC)C=CC(=O)O1` (centres undefined), the GI50 in the test with 786-0 is > 100 µM (inactive); in the test with SF-268, > 100 µM (inactive); with PC-3, > 100 µM (inactive); in the test with RXF 393, > 100 µM (inactive); with HL-60 it was 42 µM (inactive); in the test on NCI-H522, > 100 µM (inactive). Besides, the GI50 in the test with NCI/ADR-RES, in the test on UO-31, in the test with UACC-257, in the test on EKVX, with RPMI-8226 and with NCI-H226 was > 100 µM (inactive) throughout. For the same compound, the GI50 in the test on Malme-3M was > 100 µM (inactive); with DU-145, > 100 µM (inactive); with LOX IMVI, 14.2 µM (inactive); in the test with SK-OV-3 it was > 100 µM (inactive); in the test on SF-539, > 100 µM (inactive); with MDA-N, > 100 µM (inactive). Besides, the GI50 with A549 was > 100 µM (inactive).
Consider `O=C(Nc1ccccc1Cl)c1cc(S(=O)(=O)Nc2n[nH]c(=O)n2-c2ccccc2)c(S)cc1Cl`, for which the GI50 with 786-0, in the test on SF-268, in the test with RXF 393, in the test on HL-60, with NCI/ADR-RES and in the test on UO-31 was > 100 µM (inactive) each time. The GI50 in the test with UACC-257, with EKVX, with RPMI-8226, in the test on NCI-H226, in the test on Malme-3M and with DU-145 was > 100 µM (inactive) each time. In addition, the GI50 in the test with MDA-MB-435, in the test on LOX IMVI, in the test on SK-OV-3, in the test on SF-539 and in the test on MDA-N was > 100 µM (inactive) throughout.
As to `COc1ccc2nc3ccccc3c(NCCCCN(C)CCCl)c2c1`, the GI50 was 0.0177 µM (active) in the test on 786-0; 0.0186 µM (active) in the test with SF-268; 0.0569 µM (active) in the test on PC-3; 0.0914 µM (active) in the test on RXF 393; 0.0188 µM (active) in the test with HL-60; < 0.0143 µM (active) in the test on NCI-H522. Also, the GI50 is 0.0611 µM (active) with NCI/ADR-RES; 0.107 µM (active) in the test on UO-31; 0.581 µM (active) with UACC-257; 0.393 µM (active) in the test with EKVX; < 0.01 µM (active) in the test with RPMI-8226; 0.0692 µM (active) in the test with NCI-H226. Further, the GI50 is 0.33 µM (active) in the test on Malme-3M; 0.0537 µM (active) in the test with DU-145; 0.0783 µM (active) in the test on MDA-MB-435; 0.0335 µM (active) in the test with LOX IMVI; 0.0775 µM (active) with SK-OV-3; 0.0689 µM (active) in the test on SF-539. Moreover, the GI50 in the test with A549 is 0.0286 µM (active).
As for `COc1ccc(-c2cc(=O)c3c(OC)c(OC)c(OC)c(OC)c3o2)c(OC)c1`, the GI50 is 32.3 µM (inactive) in the test with 786-0; 51.5 µM (inactive) in the test on SF-268; 36.7 µM (inactive) in the test with RXF 393; 29.7 µM (inactive) in the test with HL-60; 12.9 µM (inactive) with NCI-H522; 16.8 µM (inactive) in the test on NCI/ADR-RES. Further, the GI50 is 20.6 µM (inactive) in the test with UO-31; 20 µM (inactive) with UACC-257; 29.2 µM (inactive) in the test on EKVX; 33 µM (inactive) in the test on RPMI-8226; 31 µM (inactive) in the test with NCI-H226; 30.5 µM (inactive) in the test with Malme-3M. Further, the GI50 in the test with DU-145 is 30.4 µM (inactive); with MDA-MB-435, 24.6 µM (inactive); in the test on LOX IMVI, 17.2 µM (inactive); in the test with SK-OV-3, 39.8 µM (inactive); in the test with SF-539, 61.4 µM (inactive); in the test on MDA-N, 29.1 µM (inactive). The GI50 in the test with A549 was 32.6 µM (inactive).
